Test results reported in patent US10766917B2, “Nucleotides for the treatment of cancer” (IDENIX PHARMACEUTICALS LLC, priority 2015, dated 2020).

Key:
Test in all cases: In vitro inhibition, CellTiter-Glo (CTG) assay
Format in all cases: cell-based
HCT-116 = details: 72 hr exposure
Description: (§1) Cells were grown in RPMI-1640 supplemented with L-Glutamine and 10% FBS of the following cell lines:
(§2) CCRF-CEM; HL-60; KG-1; CFPAC-1; MiaPACA-2; BxPC-3; HepG2; MDA-MB-231; HCT-116; A498; and NCI-H69
(§3) 18, 96 well plates of each cell line were seeded with the optimized number of cells per well in a total volume of 50 μper well. The plates were left overnight. Plate wells were seeded with 100 pt media for media control. The following day, cells were exposed to test compounds as described below. At the same time as drug exposure, a CTG assay was conducted on the 18th plate for the 0 hr count.
(§4) The compounds were added to cells and medium already on the plate to give desired final concentrations. 50 μL media were added to cell control wells, and 50 μL of mix added to vehicle control wells. 10 μM Doxorubicin was added to appropriate wells as control. Cells exposed to test compound were incubated at 37° C. for 72 hr followed by a CTG assay.
(§5) At the end of the 72 hr exposure period, plates were removed for a CellTiter-Glo (CTG) assay from a 37° C., 5% CO2 incubator and placed on the bench at room temperature for 30 mins. 100 μL of CellTiter-Glo reagent was added and mixed for 2 mins, followed by a further 10 min incubation at room temperature. Luminescence was recorded using Synergy 4.0.

CFPAC-1 = details: 72 hr exposure
Description: as §1, §2, §3, §4, §5

NCI-H69 = details: 72 hr exposure
Description: as §1, §2, §3, §4, §5

HL-60 = details: 72 hr exposure
Description: as §1, §2, §3, §4, §5

MiaPACA-2 = details: 72 hr exposure
Description: as §1, §2, §3, §4, §5

A498 = details: 72 hr exposure
Description: as §1, §2, §3, §4, §5

HepG2 = details: 72 hr exposure
Description: as §1, §2, §3, §4, §5

MDA-MB-231 = test system: MDA-MB-231
Description: as §1, §2, §3, §4, §5

KG-1 = details: 72 hr exposure
Description: as §1, §2, §3, §4, §5

BxPC-3 = details: 72 hr exposure
Description: as §1, §2, §3, §4, §5

CCRF-CEM = details: 72 hr exposure
Description: as §1, §2, §3, §4, §5

[1] = Homo sapiens, MDA-MB-231, 72 hr exposure

Row | Structure (SMILES) | IC50 (HCT-116) | IC50 (NCI-H69) | IC50 (HL-60) | IC50 (MiaPACA-2) | IC50 (HepG2) | IC50 (MDA-MB-231; 72 hr exposure) | IC50 (BxPC-3) | IC50 (CCRF-CEM) | IC50 (HCT-116; Homo sapiens, HCT-116, 72 h) | IC50 (HL-60; Homo sapiens, HL-60, 72 h) | IC50 (MiaPACA-2; Homo sapiens, MIA PaCa-2, 72 h) | IC50 (HepG2; Homo sapiens, HepG2, 72 h) | IC50 (MDA-MB-231; [1]) | IC50 (BxPC-3; Homo sapiens, BXPC-3, 72 h) | IC50 (CCRF-CEM; Homo sapiens, CCRF-CEM, 72 h) | IC50 (CFPAC-1) | IC50 (A498) | IC50 (KG-1) | IC50 (CFPAC-1; Homo sapiens, CFPAC-1, 72 h) | IC50 (KG-1; Homo sapiens, KG-1, 72 h) | further results
1 | CC(C)OC(=O)[C@H](C)NP1(=O)OC[C@H]2O[C@@H](n3ccc(N)nc3=O)C(F)(F)[C@@H]2O1 (single isomer, unassigned) [103 (diastereomer 2)] | 1 to 10 µM | 10 to 100 µM | < 1 µM | 1 to 10 µM | < 1 µM | 10 to 100 µM | 1 to 10 µM | < 1 µM | – | – | – | – | – | – | – | 1 to 10 µM | 10 to 100 µM | < 1 µM | – | – | –
2 | CCOC(=O)COP(=O)(N[C@@H](CC(C)C)C(=O)OCC)OC[C@H]1O[C@@H](n2ccc(N)nc2=O)C(F)(F)[C@@H]1O (single isomer, unassigned) [108 (diastereomer 1)] | – | 1 to 10 µM | – | – | – | – | – | – | 1 to 10 µM | < 1 µM | < 1 µM | < 1 µM | 1 to 10 µM | 1 to 10 µM | < 1 µM | – | < 1 µM | – | < 1 µM | < 1 µM | –
3 | CCOC(=O)COP(=O)(N[C@@H](CC(C)C)C(=O)OCC)OC[C@H]1O[C@@H](n2ccc(N)nc2=O)C(F)(F)[C@@H]1O (single isomer, unassigned) [108 (diastereomer 2)] | 1 to 10 µM | 10 to 100 µM | < 1 µM | < 1 µM | < 1 µM | 1 to 10 µM | < 1 µM | < 1 µM | – | – | – | – | – | – | – | < 1 µM | 10 to 100 µM | < 1 µM | – | – | –
4 | Cn1c(COP(=O)(NCc2ccccc2)OC[C@H]2O[C@@H](n3ccc(N)nc3=O)C(F)(F)[C@@H]2O)cnc1[N+](=O)[O-] (single isomer, unassigned) [112 (diastereomer 1)] | – | – | – | – | 10 to 100 µM | – | – | 10 to 100 µM | 10 to 100 µM | 1 to 10 µM | 10 to 100 µM | – | 10 to 100 µM | 10 to 100 µM | – | 10 to 100 µM | – | 10 to 100 µM | – | – | IC50 (NCI-H69; Homo sapiens, NCI-H69, 72 h): 10 to 100 µM; IC50 (A498; Homo sapiens, A498, 72 h): 10 to 100 µM

Now from value to compound, other results behind:

Row | IC50 (HCT-116) | IC50 (NCI-H69) | IC50 (HL-60) | IC50 (MiaPACA-2) | IC50 (HepG2) | IC50 (MDA-MB-231; 72 hr exposure) | IC50 (BxPC-3) | IC50 (CCRF-CEM) | IC50 (HCT-116; Homo sapiens, HCT-116, 72 h) | IC50 (HL-60; Homo sapiens, HL-60, 72 h) | IC50 (MiaPACA-2; Homo sapiens, MIA PaCa-2, 72 h) | IC50 (HepG2; Homo sapiens, HepG2, 72 h) | IC50 (MDA-MB-231; [1]) | IC50 (BxPC-3; Homo sapiens, BXPC-3, 72 h) | IC50 (CCRF-CEM; Homo sapiens, CCRF-CEM, 72 h) | Structure (SMILES) | IC50 (CFPAC-1) | IC50 (A498) | IC50 (KG-1) | IC50 (CFPAC-1; Homo sapiens, CFPAC-1, 72 h) | IC50 (KG-1; Homo sapiens, KG-1, 72 h) | further results
5 | 10 to 100 µM | 10 to 100 µM | < 1 µM | 10 to 100 µM | 1 to 10 µM | 10 to 100 µM | 10 to 100 µM | < 1 µM | – | – | – | – | – | – | – | Cn1c(COP(=O)(NCc2ccccc2)OC[C@H]2O[C@@H](n3ccc(N)nc3=O)C(F)(F)[C@@H]2O)cnc1[N+](=O)[O-] (single isomer, unassigned) [112 (diastereomer 2)] | 1 to 10 µM | 10 to 100 µM | 1 to 10 µM | – | – | –
6 | – | – | – | – | – | – | – | – | < 1 µM | < 1 µM | < 1 µM | < 1 µM | 1 to 10 µM | < 1 µM | < 1 µM | Nc1ccn([C@@H]2O[C@H](COP(=O)(O)NCc3ccccc3)[C@@H](O)C2(F)F)c(=O)n1 [Compound 117] | – | – | – | < 1 µM | < 1 µM | IC50 (NCI-H69; Homo sapiens, NCI-H69, 72 h): < 1 µM; IC50 (A498; Homo sapiens, A498, 72 h): < 1 µM
